Reference: US9079866B2, “Flap modulators” (JANSSEN PHARMACEUTICA NV, priority 2013, dated 2015)
Where a name gives a salt, the structure may show the parent alone.

The molecules below were run against human FLAP (Homo sapiens (Human), UniProt P20292) (assay: FLAP binding assay (HTRF format)). Details: read-out: FLAP Binding wild type HTRF Ki.
Procedure, shortened: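 Samples were run in duplicate on each of two plates and the plate results averaged. Read-out is the HTRF signal ratio.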

human FLAP, sequence (P20292 whole entry): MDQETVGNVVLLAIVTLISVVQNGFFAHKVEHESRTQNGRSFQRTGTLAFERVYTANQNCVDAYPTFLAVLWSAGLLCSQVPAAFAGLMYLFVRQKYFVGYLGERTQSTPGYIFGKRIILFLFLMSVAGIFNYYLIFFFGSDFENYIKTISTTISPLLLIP

| Structure (SMILES) | Ki [nM] |
| --- | --- |
| Nc1ncc(-c2ccc(-c3cccnc3S(=O)(=O)C3CCNC3)cc2F)cn1 (centres unmarked) [Example 804, 5-(2-Fluoro-4-(2-(pyrrolidin-3-ylsulfonyl)pyridin-3-yl)phenyl)pyrimidin-2-amine formic acid salt] | 636 |
| Nc1ncc(-c2ccc(-c3cccnc3S(=O)(=O)C3CCNCC3)cc2F)cn1 [Example 827, 5-{2-Fluoro-4-[2-(piperidin-4-ylsulfonyl)pyridin-3-yl]phenyl}pyrimidin-2-amine formic acid salt] | > 10000 |

Same assay, conditions: wild type FLAP, HTRF format

| Structure (SMILES) | Ki [nM] |
| --- | --- |
| Nc1cnc(S(=O)(=O)c2ccccc2-c2ccc(-c3cnc(N)nc3)c(F)c2)cn1 [Example 723, 5-{2′-[(5-Aminopyrazin-2-yl)sulfonyl]-3-fluorobiphenyl-4-yl}pyrimidin-2-amine] | > 10000 |
| Nc1ncc(-c2ccc(-c3ccccc3S(=O)(=O)c3ccnc(N)n3)cc2F)cn1 [Example 724, 4-{[4′-(2-Aminopyrimidin-5-yl)-3′-fluorobiphenyl-2-yl]sulfonyl}pyrimidin-2-amine] | > 10000 |
| Nc1cncc(S(=O)(=O)c2ccccc2-c2ccc(-c3cnc(N)nc3)c(F)c2)n1 [Example 725, 5-{2′-[(6-Aminopyrazin-2-yl)sulfonyl]-3-fluorobiphenyl-4-yl}pyrimidin-2-amine] | 1300 |
| Nc1cnc(-c2ccc(-c3ccccc3S(=O)(=O)c3cc(N)ncn3)cc2F)cn1 [Example 726, 6-{[4′-(5-Aminopyrazin-2-yl)-3′-fluorobiphenyl-2-yl]sulfonyl}pyrimidin-4-amine] | 904 |
| Nc1ncc(-c2ccc(-c3ccccc3S(=O)(=O)CC3CC3)cc2F)cn1 [Example 728, 5-{2′-[(Cyclopropylmethyl)sulfonyl]-3-fluorobiphenyl-4-yl}pyrimidin-2-amine] | 781 |
| CC(C)(C#N)S(=O)(=O)c1ccccc1-c1ccc(-c2cnc(N)nc2)c(F)c1 [Example 732, 2-{[4′-(2-Aminopyrimidin-5-yl)-3′-fluorobiphenyl-2-yl]sulfonyl}-2-methylpropanenitrile] | 557 |
| CC(C)(C(N)=O)S(=O)(=O)c1ccccc1-c1ccc(-c2cnc(N)nc2)c(F)c1 [Example 733, 2-{[4′-(2-Aminopyrimidin-5-yl)-3′-fluorobiphenyl-2-yl]sulfonyl}-2-methylpropanamide] | > 10000 |
| CC(C)(CN)S(=O)(=O)c1ccccc1-c1ccc(-c2cnc(N)nc2)c(F)c1 [Example 734, 5-{2′-[(2-Amino-1,1-dimethylethyl)sulfonyl]-3-fluorobiphenyl-4-yl}pyrimidin-2-amine] | > 10000 |
| CC(C)(CN)S(=O)(=O)c1ccccc1-c1ccc(-c2cnc(N)cn2)c(F)c1 [Example 737, 5-{2′-[(2-Amino-1,1-dimethylethyl)sulfonyl]-3-fluorobiphenyl-4-yl}pyrazin-2-amine] | 984 |
| NCC1(S(=O)(=O)c2ccccc2-c2ccc(-c3cnc(N)nc3)c(F)c2)CCCC1 [Example 740, 5-(2′-{[1-(Aminomethyl)cyclopentyl]sulfonyl}-3-fluorobiphenyl-4-yl)pyrimidin-2-amine] | > 10000 |
| CC(C)(C)NS(=O)(=O)c1ccccc1-c1ccc(-c2cnc(NS(C)(=O)=O)cn2)c(F)c1 [Example 748, N-(tert-Butyl)-3′-fluoro-4′-(5-(methylsulfonamido)pyrazin-2-yl)-[1,1′-biphenyl]-2-sulfonamide] | > 10000 |
| CS(=O)(=O)Cc1ccccc1-c1ccc(-c2cnc(N)cn2)c(F)c1 [Example 750, 5-{3-Fluoro-2′-[(methylsulfonyl)methyl]biphenyl-4-yl}pyrazin-2-amine] | 1160 |
| Nc1cnc(-c2ccc(-c3ccccc3C(=O)N3CC(O)C3)cc2F)cn1 [Example 755, 1-{[4′-(5-Aminopyrazin-2-yl)-3′-fluorobiphenyl-2-yl]carbonyl}azetidin-3-ol] | 940 |
| Nc1cnc(-c2ccc(-c3ccccc3C(=O)NC3CCOCC3)cc2F)cn1 [Example 756, 4′-(5-Aminopyrazin-2-yl)-3′-fluoro-N-(tetrahydro-2H-pyran-4-yl)biphenyl-2-carboxamide] | > 10000 |
| Nc1ncc(-c2ccc(-c3ccccc3C(=O)NCCO)cc2F)cn1 [Example 761, 4′-(2-Aminopyrimidin-5-yl)-3′-fluoro-N-(2-hydroxyethyl)biphenyl-2-carboxamide] | > 10000 |
| Nc1ncc(-c2ccc(-c3ccccc3C(=O)N3CCC[C@@H](O)C3)cc2F)cn1 [Example 764, (3R)-1-{[4′-(2-Aminopyrimidin-5-yl)-3′-fluorobiphenyl-2-yl]carbonyl}piperidin-3-ol] | > 10000 |
| Nc1ncc(-c2ccc(-c3ccccc3C(=O)N3CCC[C@H](O)C3)cc2F)cn1 [Example 767, (3S)-1-{[4′-(2-Aminopyrimidin-5-yl)-3′-fluorobiphenyl-2-yl]carbonyl}piperidin-3-ol] | > 10000 |
| Nc1cnc(-c2ccc(-c3ccccc3C(=O)N3CCC[C@H](O)C3)cc2F)cn1 [Example 768, (3S)-1-{[4′-(5-Aminopyrazin-2-yl)-3′-fluorobiphenyl-2-yl]carbonyl}piperidin-3-ol] | 573 |

Further lines, results first:

| Ki [nM] | Structure (SMILES) |
| --- | --- |
| 1540 | Nc1cnc(-c2ccc(-c3ccccc3C(=O)N3CC[C@@H](O)C3)cc2F)cn1 [Example 769, (3R)-1-{[4′-(5-Aminopyrazin-2-yl)-3′-fluorobiphenyl-2-yl]carbonyl}pyrrolidin-3-ol] |
| > 10000 | Nc1ncc(-c2ccc(-c3ccccc3C(=O)N3CC[C@@H](O)C3)cc2F)cn1 [Example 770, (3R)-1-{[4′-(2-Aminopyrimidin-5-yl)-3′-fluorobiphenyl-2-yl]carbonyl}pyrrolidin-3-ol] |
| > 10000 | Nc1cnc(-c2ccc(-c3ccccc3C(=O)N3CC[C@H](O)C3)cc2F)cn1 [Example 771, (3S)-1-{[4′-(5-Aminopyrazin-2-yl)-3′-fluorobiphenyl-2-yl]carbonyl}pyrrolidin-3-ol] |
| > 10000 | Nc1ncc(-c2ccc(-c3ccccc3C(=O)N3CC[C@H](O)C3)cc2F)cn1 [Example 772, (3S)-1-{[4′-(2-Aminopyrimidin-5-yl)-3′-fluorobiphenyl-2-yl]carbonyl}pyrrolidin-3-ol] |
| > 10000 | C[C@H]1COCCN1C(=O)c1ccccc1-c1ccc(-c2cnc(N)nc2)c(F)c1 [Example 778, 5-(3-Fluoro-2′-{[(3S)-3-methylmorpholin-4-yl]carbonyl}biphenyl-4-yl)pyrimidin-2-amine] |
| ~2490 | C[C@@H]1COCCN1C(=O)c1ccccc1-c1ccc(-c2cnc(N)nc2)c(F)c1 [Example 779, 5-(3-Fluoro-2′-{[(3R)-3-methylmorpholin-4-yl]carbonyl}biphenyl-4-yl)pyrimidin-2-amine] |
| 730 | O=C(c1ncccc1-c1ccc(-c2cnc3[nH]ccc3c2)c(F)c1)N1CCOCC1 [Example 781, 5-{2-Fluoro-4-[2-(morpholin-4-ylcarbonyl)pyridin-3-yl]phenyl}-1H-pyrrolo[2,3-b]pyridine] |
| > 10000 | Nc1ncc(-c2ccc(-c3cccnc3C(=O)N3CCOCC3)cc2F)cn1 [Example 782, 5-{2-Fluoro-4-[2-(morpholin-4-ylcarbonyl)pyridin-3-yl]phenyl}pyrimidin-2-amine] |
| > 10000 | Nc1cnc(-c2ccc(-c3cccnc3C(=O)N3CCOCC3)cc2F)cn1 [Example 783, 5-{2-Fluoro-4-[2-(morpholin-4-ylcarbonyl)pyridin-3-yl]phenyl}pyrazin-2-amine] |
| > 10000 | Nc1ncc(-c2ccc(-c3ccccc3C(=O)N3CC(O)C3)cc2F)cn1 [Example 791, [2-[4-(2-Aminopyrimidin-5-yl)-3-fluoro-phenyl]phenyl]-(3-hydroxyazetidin-1-yl)methanone] |
| > 10000 | CNC1CCN(C(=O)c2ccccc2-c2ccc(-c3cnc(N)nc3)c(F)c2)CC1 [Example 792, [2-[4-(2-Aminopyrimidin-5-yl)-3-fluoro-phenyl]phenyl]-[4-(methylamino)-1-piperidyl]methanone] |
| 391 | Nc1ncc(-c2ccc(-c3ccc(C(F)(F)F)cc3C(=O)N3CCC(O)CC3)cc2F)cn1 [Example 796, [2-[4-(2-Aminopyrimidin-5-yl)-3-fluoro-phenyl]-5-(trifluoromethyl)phenyl]-(4-hydroxy-1-piperidyl)methanone] |
| > 10000 | Nc1ncc(-c2ccc(-c3ccccc3C(=O)NC3CCOCC3)cc2F)cn1 [Example 797, 2-[4-(2-Aminopyrimidin-5-yl)-3-fluoro-phenyl]-N-tetrahydropyran-4-yl-benzamide] |
| > 10000 | CC(C)(C)C(=O)Nc1ncccc1-c1ccc(-c2cnc(N)nc2)c(F)c1 [Example 800, N-{3-[4-(2-Aminopyrimidin-5-yl)-3-fluorophenyl]pyridin-2-yl}-2,2-dimethylpropanamide] |
| > 10000 | CC(C)(C)C(=O)Nc1ncccc1-c1ccc(-c2cnc(N)cn2)c(F)c1 [Example 801, N-{3-[4-(5-Aminopyrazin-2-yl)-3-fluorophenyl]pyridin-2-yl}-2,2-dimethylpropanamide] |
| 463 | COCCCS(=O)(=O)c1ncccc1-c1ccc(-c2cnc(N)nc2)c(F)c1 [Example 817, 5-(2-Fluoro-4-(2-((3-methoxypropyl)sulfonyl)pyridine-3-yl)phenyl)pyrimidin-2-amine hydrogen chloride salt] |
| > 10000 | Nc1ncc(-c2ccc(-c3cccnc3S(=O)(=O)CCN3CCOCC3)cc2F)cn1 [Example 821, 5-(2-Fluoro-4-(2-((2-morpholinoethyl)sulfonyl)pyridine-3-yl)phenyl)pyrimidin-2-amine formic acid salt] |
| 1310 | Nc1cnc(-c2ccc(-c3cccnc3S(=O)(=O)C3CCNCC3)cc2F)cn1 [Example 832, 5-{2-Fluoro-4-[2-(piperidin-4-ylsulfonyl)pyridin-3-yl]phenyl}pyrazin-2-amine hydrochloride] |
| ~500 | Nc1cnc(-c2ccc(-c3ccccc3)c(F)c2F)cn1 [Example 833, 5-(2,3-Difluorobiphenyl-4-yl)pyrazin-2-amine] |
| > 10000 | Nc1cnc(-c2ccc(-c3cc(C(F)(F)F)ccc3-c3cnc(N)nc3)cc2F)cn1 [Example 845, 5-[4′-(5-Aminopyrazin-2-yl)-3′-fluoro-5-(trifluoromethyl)biphenyl-2-yl]pyrimidin-2-amine] |
| 1280 | Nc1ncc(-c2ccccc2-c2cnc(-c3cnc(N)nc3)c(F)c2)cn1 [Example 854, 5-{2-[6-(2-Aminopyrimidin-5-yl)-5-fluoropyridin-3-yl]phenyl}pyrimidin-2-amine] |
